Here are results for 3 compounds from patent US20110045522A1, “METHODS FOR DIAGNOSING DIABETES AND DETERMINING EFFECTIVENESS OF TREATMENTS” (priority 2009, published 2011).

In assay [1] the test system is IL-1 receptor antagonist (IL-1Ra). The note with it: cartilage culture media; cited from earlier work.
In a further assay the test system is IL-1β. The note with it: human OA cartilage and synovial tissue cultures; cited from earlier work.
For assay [2], the system named is IL-1Ra production in human kidney proximal tubular cell line (HK-2). Briefly: IL-1Ra production in HK-2 cell culture media, ELISA. The note with it: HK-2 cells; for concentration of IL-1Ra: FIG. 1B. The format is cell-based. How it is done: Human kidney proximal cell line is commercially available and may be purchased, for example, from American Type Culture Collection (ATCC) under the symbol HK-2.
The immortalized human kidney proximal tubular cell line (HK-2) was cultured in DMEM/F12 containing 2.50 g/l HEPES, 1.80 g/l sodium bicarbonate, 100 U/ml penicillin, […] streptomycin, and 10% FCS at 37° C. in 5% CO2. After being digested with 0.25% trypsin, 1×10^5 cells were grown in 50 ml plastic culture bottles. The cells were cultured overnight in DMEM/F12 5% FCS; then, media were changed to fresh DMEM/F12 5% FCS containing diacerin with various concentrations of 2.0 μg/ml, 2.5 μg/ml, 3.0 μg/ml, 5.0 μg/ml, 10 μg/ml, 20 μg/ml, and negative (5% FCS) controls. Cultures were continued for further time points of 0 hour, 0.5 hour, 1 hour, 3 hours, 5 hours, 8 hours, 16 hours, 32 hours, and 72 hours. Upon reaching each time point, the media were collected. The cell culture method is well explained in Yao, et al, Preventive Effects of Salvianolic Acid on Transforming Growth Factorb 1-Induced Epithelial-to-Mesenchymal Transition of Human Kidney Cells, Biol. Pharm. Bull. 2009, 32(5) 882-886.
The collected media at each time point and concentration were assayed for IL-1Ra concentrations using ELISA assays.

A further assay deals with INS-1E cells. Particulars: reported in the literature; positive control; cited from earlier work.

Consider `CC(=O)Oc1cccc2c1C(=O)c1c(OC(C)=O)cc(C(=O)O)cc1C2=O` [diacerin, 4,5-bis(acetyloxy)-9,10-dioxo-2-anthracene carboxylic acid], for which, in assay [1], the IL-1Ra levels result is “increased”. For the same compound, the IL-1β production entry in the assay with IL-1β is given as “significantly inhibited”. Further, the “concentration of IL-1Ra” value was “approximately 0.8 pg/ml” in assay [2] (5 μg/ml diacerin, 16 hours treatment); “approximately 1.3 pg/ml” in assay [2] (10 μg/ml diacerin, 16 hours treatment); “approximately 4.2 pg/ml” in assay [2] (20 μg/ml diacerin, 16 hours treatment). Further, the “concentration at which IL-1Ra production was first observed” value in assay [2] (16 hours treatment) was determined as 5 µg/mL. The “effect on IL-1Ra production” value in assay [2] (16 hours treatment) is reported as “dose-dependently increased”. Besides, the “dose-dependent effect on production of IL-1Ra” value in assay [2] (32 hours treatment) and in assay [2] (72 hours treatment) was “diminished” in each case.

Turning to `O=C(O)c1cc(O)c2c(c1)C(=O)c1cccc(O)c1C2=O` [rhein, 9,10-dihydro-4,5-dihydroxy-9,10-dioxo-2-anthracenecarboxylic acid], the IL-1Ra levels entry in assay [1] is “increased”. In addition, the IL-1β production entry in the assay on IL-1β is on record as “significantly inhibited”.

For the compound “Exendin-4: positive control, reported to inhibit IL-1β-induced INS-1E cell apoptosis”, the “IL-1β-induced INS-1E cell apoptosis” value in the assay on INS-1E cells is listed as “inhibit”.
